US20120052142A1, “BIOLOGICALLY ACTIVE COMPOSITIONS FROM Schisandra chinensis FOR TREATING COLORECTAL CANCER” (Dr. Chang Naturals, LLC, priority 2010, published 2012)
Entries after “also recorded” stand apart in the source; their conditions may differ. Where two headings read alike, the source gives them in different places.

How the values were obtained:
[1] = system: human colorectal carcinoma cell line HT29; assay: MTS cell viability assay, HT-29; assay type: cell-based
Text: The comestible use of the fruit products and its potential anticancer properties prompted the current investigation as to whether the active constituents could be used to treat colorectal cancer. The robust MTS cell viability assay with the p53-mutant human colon HT-29 cell line served as an assay-guided screening tool for the purification of the active principles of the fruit extract (see further description in the Example section).
Erythroleukemia K562, human colon HT-29 and breast MCF-7 cancer cell lines were obtained from the American Type Culture Collection (Manassas, Va., USA). All cells were maintained in Dulbecco's modified Eagle's medium (DMEM) supplemented with 10% fetal bovine serum, penicillin (100 U ml^−1) and streptomycin (100 U ml^−1). Cells were incubated at 37° C. in a 5% CO2 humidified atmosphere.
Cells were seeded at a density of 1.5×10^4 cells/well on a 96-well plate. When the cells reached 60 to 70% confluency, the growth medium was aspirated and the wells were rinsed with pre-warmed PBS. Test compounds at various concentrations or 1% DMSO (vehicle control) were then added and the plates were incubated for 72 h. After incubation, 40 μL of a solution of CellTiter 96 Aqueous One Solution (Promega, Madison, Wis., USA) containing MTS [3-(4,5-dimethylthiazol-2-yl)-5-(3-carboxymethoxyphenyl)-2-(4-sulfophenyl)-2H-tetrazolium)] and an electron coupling reagent (phenazine ethosulfate) were added to each well with an auto-repeat pipetor. The plates were incubated for 3 hours during which time the reagent was bio-reduced into a colored formazan product by the intracellular dehydrogenase enzymes of metabolically active cells. The quantity of formazan produced is directly proportional to the number of living cells in the cultures. The absorbance (A) was measured at 490 nm (reference at 690 nm) on a PowerWave 200 microplate reader (Bio-Tek Instruments). The results were expressed as percent cell viability, calculated for each drug concentration using the formula:
% Viability=(A treated group/A control group)×100%.
(100% viability was represented by samples with DMSO vehicle control).
The half-maximal inhibitory concentration, IC50, values were obtained from the sigmoidal curve by plotting the percentage viability of cells against the drug concentration using Psi-Plot version 9, Poly Software International (Pearl River, N.Y., USA).

hepatic carcinoma = details: especially in high concentrations; Molecular Medicine Reports 2:725-732, 2009; cited from earlier work
colon cell line LoVo = details: Planta Medica 2010: 76:1672-1677; cited from earlier work
[2] = HT29, MTS cell viability, 72 h, average of two independent experiments in triplicate
[3] = HT-29, from dose-response curves (FIG. 4, FIG. 5), read-out: concentration inhibiting cell growth by 50% (IC50), molar basis

SMILES | Activity IC50 [1, 2] [µg/mL] | anti-proliferative activity against HT-29 (in words) ([1]; HT-29) | IC50 [1, 3] [µM] | IC50 ([1]; Homo sapiens, HT-29, HT29, MTS cell viability, 72 h, average of two independent experiments in triplicate, read-out: Activity IC50) [µg/mL] | IC50 ([1]; Homo sapiens, HT-29, from dose-response curves (FIG. 4, FIG. 5), read-out: concentration inhibiting cell growth by 50% (IC50), molar basis) [µM] | apoptosis induction in hepatic carcinoma (in words) (hepatic carcinoma) | activity against LoVo (in words) (colon cell line LoVo) | anti-proliferative activity against HT-29 (in words) ([1]; HT-29, listed as schisandrin)
C/C=C(/C)C(=O)Oc1c(OC)c(OC)cc2c1-c1c(cc(OC)c(OC)c1OC)C[C@](C)(O)[C@@H](C)C2 [Angeloylgomisin H, angeloylgomisin H] | 348 | moderate activity | 696 | – | – | – | – | –
COc1cc2c(c(OC)c1OC)-c1c(cc(OC)c(OC)c1OC)C[C@H](C)[C@@H](C)C2 [Deoxyschisandrin, deoxyschisandrin] | – | – | – | 140 | 336 | – | – | –
COc1cc2c(c(OC)c1OC)-c1c(cc3c(c1OC)OCO3)C[C@H](C)[C@](C)(O)C2 [Gomisin A, gomisin A] | 300 | – | 716 | – | – | – | – | –
COc1cc2c(c(OC)c1OC)-c1c(cc3c(c1OC)OCO3)C[C@H](C)[C@H](C)C2 [Gomisin N, gomisin N] | 17 | – | 43 | – | – | induces high apoptotic levels | do not find Gomisin N to be active | –
COc1cc2c(c(OC)c1OC)-c1c(cc(OC)c(OC)c1OC)C[C@](C)(O)[C@@H](C)C2 [Schisandrin, schisandrin] | >1000 | devoid of detectable biological activity | – | – | – | – | – | does not show any activity; also recorded: inactive
